Source: the supplement of paper PMC11997997

Tests used:
[1] = system: murine bone marrow-derived macrophages; test: area under cytotoxicity dose-response curve (AUC (% cytotoxicity x dose, relative)); higher = more cytotoxic; conditions: duration: 6 days; dose range: 0.13-80 uM, 8 points
Outline: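 Cytotoxicity is expressed as the area under the dose–response curve from GraphPad Prism version 10. To obtain it, primary murine bone marrow-derived macrophages were incubated for 6 days at 37 °C in 5% CO2 across final concentrations of 80–0.13 μM. Viability came from CellTiter-Glo luminescence, and percent cytotoxicity was normalised to vehicle and positive control wells.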

[2] = system: Mycobacterium tuberculosis CDC1551 (intracellular, in murine BMDM); test: area under intracellular growth-inhibition dose-response curve (AUC (% inhibition x dose, relative)); higher = more potent; conditions: duration: 6 days; dose range: 0.13-80 uM, 8 points
Outline: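 In 384-well opaque plates, primary murine bone marrow-derived macrophages were infected with luciferase-expressing M. tuberculosis CDC1551 (multiplicity of infection 1, 1 h) 24 h after seeding, then treated for 6 days across final concentrations of 80–0.13 μM. Growth was measured by Bright-Glo luciferin assay, normalised to a reference drug control and the lowest-concentration wells. The reported value is the area under the growth-inhibition dose–response curve from GraphPad Prism.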

## COc1ccc(NC(=O)CON=CC(=O)Nc2ccc(C)cc2)c(OC)c1
[1]
  area under cytotoxicity dose-response curve: 7
[2]
  area under intracellular growth-inhibition dose-response curve: 38.9

## Nc1ccc(C(=O)[O-])c(O)c1.O.[Na+]
[1]
  area under cytotoxicity dose-response curve: 0.704
[2]
  area under intracellular growth-inhibition dose-response curve: 184

## Cc1ccccc1OCC(=O)NC(=S)Nc1ccc(N2CCCC2)cc1
[1]
  area under cytotoxicity dose-response curve: 105
[2]
  area under intracellular growth-inhibition dose-response curve: 182

## O=C(CCC1CCCC1)NCc1ccccn1
[1]
  area under cytotoxicity dose-response curve: < 0
[2]
  area under intracellular growth-inhibition dose-response curve: 240

## Cc1ccc(-[n+]2c(-c3ccc(Br)cc3)cn3c2CCc2ccc4cccnc4c2-3)cc1.[Br-]
[1]
  area under cytotoxicity dose-response curve: 29
[2]
  area under intracellular growth-inhibition dose-response curve: 96.2

## CCOc1ccc2oc(C(=O)OCC(=O)NCc3ccc(OC)cc3)c(C)c2c1
[1]
  area under cytotoxicity dose-response curve: < 0
[2]
  area under intracellular growth-inhibition dose-response curve: 58.1

## O=C(/C=C/c1ccc2c(c1)OCO2)N1CCCCC1
[1]
  area under cytotoxicity dose-response curve: 15.2
[2]
  area under intracellular growth-inhibition dose-response curve: 155

## Cc1cc(/C=N/NC(N)=S)c(C)n1-c1ccc(Br)cc1
[1]
  area under cytotoxicity dose-response curve: < 0
[2]
  area under intracellular growth-inhibition dose-response curve: 257

## CCOc1ccccc1OCCCC(=O)Nc1cccc(S(=O)(=O)N2CCOCC2)c1
[1]
  area under cytotoxicity dose-response curve: 99
[2]
  area under intracellular growth-inhibition dose-response curve: 74

## NS(=O)(=O)c1ccc(NC(=S)Nc2ccc(OCc3ccccc3)cc2)cc1
[1]
  area under cytotoxicity dose-response curve: < 0
[2]
  area under intracellular growth-inhibition dose-response curve: 244

## CNc1cc(Cl)c2nonc2c1[N+](=O)[O-]
[1]
  area under cytotoxicity dose-response curve: 10.1
[2]
  area under intracellular growth-inhibition dose-response curve: 3.12

## CC(C)[C@@H]1CC[C@@H](C)C[C@H]1OC(=O)C[n+]1cc(-c2ccc(Cl)cc2)n2c1CCCCC2.[Cl-]
[1]
  area under cytotoxicity dose-response curve: 101
[2]
  area under intracellular growth-inhibition dose-response curve: 8.38

## COc1cc(/C=N/NC(N)=S)ccc1OC(=O)c1ccc(C)cc1
[1]
  area under cytotoxicity dose-response curve: 23.5
[2]
  area under intracellular growth-inhibition dose-response curve: 264

## Cc1cc(OCCCCn2ccnc2)cc(C)c1Cl.Cl
[1]
  area under cytotoxicity dose-response curve: 24
[2]
  area under intracellular growth-inhibition dose-response curve: 174

## Cc1cc(/C=N/NC(N)=S)c(C)n1-c1cccc(Cl)c1
[1]
  area under cytotoxicity dose-response curve: 34
[2]
  area under intracellular growth-inhibition dose-response curve: 190

## CCOc1ccc(C(=O)CCC(=O)NNC(=O)c2ccncc2)cc1
[1]
  area under cytotoxicity dose-response curve: 49
[2]
  area under intracellular growth-inhibition dose-response curve: 119

## Nc1c2c(nc3ccn(Cc4ccccc4)c(=O)c13)CCC2
[1]
  area under cytotoxicity dose-response curve: 39.1
[2]
  area under intracellular growth-inhibition dose-response curve: 196

## Clc1cnc(N/N=C/c2ccco2)c(Cl)c1
[1]
  area under cytotoxicity dose-response curve: 93.8
[2]
  area under intracellular growth-inhibition dose-response curve: 189

## NC(=S)N/N=C/c1ccc(/C=N/NC(N)=S)cc1
[1]
  area under cytotoxicity dose-response curve: 20.6
[2]
  area under intracellular growth-inhibition dose-response curve: 258

## C/C(=N\NC(=O)c1ccncc1)C12CC3CC(CC(C3)C1)C2
[1]
  area under cytotoxicity dose-response curve: 97.9
[2]
  area under intracellular growth-inhibition dose-response curve: 239

## COc1cc(OC)c([N+](=O)[O-])cc1/C=N/NC(=O)c1ccncc1
[1]
  area under cytotoxicity dose-response curve: 19
[2]
  area under intracellular growth-inhibition dose-response curve: 242

## CC(=O)c1c(C)[n+]([O-])c2cc(C)ccc2[n+]1[O-]
[1]
  area under cytotoxicity dose-response curve: 31.7
[2]
  area under intracellular growth-inhibition dose-response curve: 95.3

## CC(=O)Nc1ccc(Sc2ccc([N+](=O)[O-])o2)cc1
[1]
  area under cytotoxicity dose-response curve: 21.3
[2]
  area under intracellular growth-inhibition dose-response curve: 108

## COc1ccc(/C=C/C(=O)c2ccc([N+](=O)[O-])o2)cc1
[1]
  area under cytotoxicity dose-response curve: 71.5
[2]
  area under intracellular growth-inhibition dose-response curve: 162

## CCC(=O)N1CCN(c2ccc(NC(=O)c3ccc([N+](=O)[O-])o3)cc2)CC1
[1]
  area under cytotoxicity dose-response curve: 3.32
[2]
  area under intracellular growth-inhibition dose-response curve: 47.9

## CCOc1ncccc1C(=O)Nc1cc2c(cc1Br)OCCO2
[1]
  area under cytotoxicity dose-response curve: 24.1
[2]
  area under intracellular growth-inhibition dose-response curve: 132

## C/C(CC(=O)NCCN1CCOCC1)=N\NC(=O)c1ccncc1
[1]
  area under cytotoxicity dose-response curve: 12.5
[2]
  area under intracellular growth-inhibition dose-response curve: 206

## COc1ccc(OC)c2sc(N3CCN(C(=O)c4ccc([N+](=O)[O-])s4)CC3)nc12
[1]
  area under cytotoxicity dose-response curve: 14.2
[2]
  area under intracellular growth-inhibition dose-response curve: 10.8

## O=C(Cn1c(=O)cnc2ccccc21)Nc1cccc(S(=O)(=O)N2CCOCC2)c1
[1]
  area under cytotoxicity dose-response curve: 30.4
[2]
  area under intracellular growth-inhibition dose-response curve: 23.9

## N#C/C(=N/Nc1ccc(OC(F)(F)F)cc1)C(N)=S
[1]
  area under cytotoxicity dose-response curve: 90
[2]
  area under intracellular growth-inhibition dose-response curve: 62.6

## O=C(c1ccc(Cl)c(Cl)c1)N1CCCC1
[1]
  area under cytotoxicity dose-response curve: 52.5
[2]
  area under intracellular growth-inhibition dose-response curve: 86.7

## COc1cc(/C=N/NC(=O)c2ccncc2)ccc1Oc1ccc([N+](=O)[O-])cn1
[1]
  area under cytotoxicity dose-response curve: 71.3
[2]
  area under intracellular growth-inhibition dose-response curve: 194

## CCOC(=O)c1c(-c2ccccc2)nc2cc(C)ccn12
[1]
  area under cytotoxicity dose-response curve: 1.58
[2]
  area under intracellular growth-inhibition dose-response curve: 147

## COc1ccc(-c2ncn(CCC#N)c2[N+](=O)[O-])cc1
[1]
  area under cytotoxicity dose-response curve: 8.24
[2]
  area under intracellular growth-inhibition dose-response curve: 119

## COc1cccc2c1C(=O)c1c(O)c3c(c(O)c1C2=O)C[C@](O)(C(C)=O)C[C@H]3O[C@@H]1C[C@@H](N)[C@@H](O)[C@@H](C)O1.Cl
[1]
  area under cytotoxicity dose-response curve: 172
[2]
  area under intracellular growth-inhibition dose-response curve: 44.8

## O=C(NCCC1CCCC1)c1cccs1
[1]
  area under cytotoxicity dose-response curve: 13.7
[2]
  area under intracellular growth-inhibition dose-response curve: 200

## C/C(=N\Cc1ccc2c(c1)OCO2)C1=C(O)c2ccccc2C1=O
[1]
  area under cytotoxicity dose-response curve: < 0
[2]
  area under intracellular growth-inhibition dose-response curve: 214

## O=C(CC1CCCCC1)NCC1CCCO1 (stereo unspecified)
[1]
  area under cytotoxicity dose-response curve: 25.1
[2]
  area under intracellular growth-inhibition dose-response curve: 165

## O=C(NCC1CCCO1)c1csc2c1CCCCC2 (stereo unspecified)
[1]
  area under cytotoxicity dose-response curve: 19.4
[2]
  area under intracellular growth-inhibition dose-response curve: 143

## COc1ccc(C(=O)COC(=O)CNC(=O)c2ccc(C)s2)c(OC)c1
[1]
  area under cytotoxicity dose-response curve: < 0
[2]
  area under intracellular growth-inhibition dose-response curve: 29.9

## CC(NC(=O)COC(=O)c1ccc(N2CCCC2=O)cc1)c1ccc(F)cc1 (stereo unspecified)
[1]
  area under cytotoxicity dose-response curve: < 0
[2]
  area under intracellular growth-inhibition dose-response curve: 37.5

## Cc1ccnc2c1ccc1cccnc12
[1]
  area under cytotoxicity dose-response curve: 208
[2]
  area under intracellular growth-inhibition dose-response curve: 149

## O=P1(c2ccccc2)Nc2ccccc2N1c1ccccc1 (stereo unspecified)
[1]
  area under cytotoxicity dose-response curve: 8.15
[2]
  area under intracellular growth-inhibition dose-response curve: 264

## COc1ccc(/C=N/Nc2cc(C)nc3ccc(OC)cc23)c(OC)c1
[1]
  area under cytotoxicity dose-response curve: 42.9
[2]
  area under intracellular growth-inhibition dose-response curve: 151

## O=C(N/N=C/c1ccc(Sc2nc3ccccc3[nH]2)o1)c1ccncc1
[1]
  area under cytotoxicity dose-response curve: 34.4
[2]
  area under intracellular growth-inhibition dose-response curve: 269

## O=C(/C=C\c1cccs1)N1CCN(Cc2ccc3c(c2)OCO3)CC1
[1]
  area under cytotoxicity dose-response curve: 135
[2]
  area under intracellular growth-inhibition dose-response curve: 218

## CNc1ncnc2c1ncn2[C@@H]1O[C@H](CO)[C@@H](O)[C@H]1O
[1]
  area under cytotoxicity dose-response curve: 32.7
[2]
  area under intracellular growth-inhibition dose-response curve: 39.4

## CC(C)C(=O)N1CCN(c2ccc(NC(=O)c3ccc([N+](=O)[O-])o3)cc2)CC1
[1]
  area under cytotoxicity dose-response curve: 84.2
[2]
  area under intracellular growth-inhibition dose-response curve: 64.2

## Cc1ccc(NC(=O)c2cc(S(=O)(=O)N3CCCCC3)ccc2N2CCOCC2)cc1S(=O)(=O)N(C)C
[1]
  area under cytotoxicity dose-response curve: 58.9
[2]
  area under intracellular growth-inhibition dose-response curve: < 0

## COc1ccc(C(=O)C(C)OC(=O)CNC(=O)c2ccco2)cc1 (stereo unspecified)
[1]
  area under cytotoxicity dose-response curve: < 0
[2]
  area under intracellular growth-inhibition dose-response curve: 166

## COC(=O)c1ccc2nc(C)cc(Nc3ccc(N(C)C)cc3)c2c1.Cl
[1]
  area under cytotoxicity dose-response curve: < 0
[2]
  area under intracellular growth-inhibition dose-response curve: 243

## Cc1nc(SCc2cccc(F)c2)c2oc3ccccc3c2n1
[1]
  area under cytotoxicity dose-response curve: < 0
[2]
  area under intracellular growth-inhibition dose-response curve: 186

## CC(=O)c1ccc(NC(=S)Nc2ccc(N3CCOCC3)cc2)cc1.Cl
[1]
  area under cytotoxicity dose-response curve: 40.4
[2]
  area under intracellular growth-inhibition dose-response curve: 260
